According to US8067422B2, “Crystal form of phenylamino pyrimidine derivatives” (Natco Pharma Limited, priority 2008, dated 2011):

Columns and labels:
K562 = assay: ED50 (po) in leukemic mice (K562)
K562 cells = assay: Anti-CML activity in nude mice implanted with K562 cells (leukemia growth index); format: in vivo; conditions: ip injections
Excerpt: Nude mice (nu/nu) were implanted with K562 cells (1×10^6) via tail vein.
Blood was drawn via the tail vein. Quantitative analysis of LGI was graphically represented.

5310 glioma cells [1] = assay: Matrigel invasion assay (modified Boyden chamber), 5310; format: cell-based; conditions: 5310
Protocol: (§1) The in vitro invasiveness of 4910, 5310 and U87 glioma cells and MDAMB231 and ZR71 breast cancer cells in the presence of specified concentrations of compounds were assessed using a modified Boyden chamber assay. Cells were treated with these compounds for 48 h. 1×10^6 cells were suspended in 600 μl of serum-free medium supplemented with 0.2% BSA and placed in the upper compartment of the transwell chambers (Corning Costar Fischer Scientific Cat #07-200-158, Pittsburgh Pa.) coated with Matrigel (0.7 mg/ml). The lower compartment of the chamber was filled with 200 μl of serum medium and the cells were allowed to migrate for 24 h. After incubation, the cells were fixed and stained with Hema-3 and quantified as previously described (Mohanam et al. 1993). The migrated cells were imaged microscopically to determine the reduction in invasiveness induced by the compounds of this invention.

[2] = system: MDAMB231 breast cancer cells; assay: In vitro angiogenic assay, MDA-MB-231 conditioned media on human dermal endothelial cells; format: cell-based; conditions: MDA-MB-231 cells
Protocol: (§2) The in vitro angiogenesis of 4910, 5310 and U87 glioma cells and MDAMB231 and ZR71 breast cancer cells in the presence of specified concentrations of compounds were determined as follows, cells (2×10^4/well) were seeded in 8-well chamber slides and were treated with various concentrations of test compounds. After a 24 h incubation period, the conditioned media was removed and added to a 4×10^4 human dermal endothelial cell (monolayer in 8-well chamber slides) and the human dermal endothelial cells were allowed to grow for 72 h. Cells were then fixed in 3.7% formaldehyde and stained with H&E and photographed.

[3] = system: pAKT and pERK in glioma and breast cancer cells; assay: Western blot analysis, pAKT and pERK (cell line not specified); format: cell-based; conditions: both with and without radiation
Protocol: (§3) Western blot analysis of 4910, 5310 and U87 glioma cells and MDAMB231 and ZR71 breast cancer cells in the presence of specified concentrations of compounds were assessed as per standard protocols. Cells were treated with AN019, AN024 or Temozolomide at the specified concentrations. 24 h after treatment, cells were collected and cell lysates extracted. Equal quantities of proteins were fractionated by SDS-PAGE. The fractionated proteins were blotted on to nylon membranes and immunoprobed for AKT, ERK and Pi3k. Breast cancer cell protein isolates were additionally immunoprobed for EGFR, ErbB1, ErbB2 and ErbB3.

[4] = system: Baf3 murine leukemia cells (M351T); assay: Blast cell count in nude mice implanted with Baf3 M351T cells; format: in vivo; conditions: Baf3M351T; Imatinib 10 mg/kg, AN019 20 mg/kg, AN024 20 mg/kg, oral gavage or ip; day 42
Excerpt: (§4) Blood smears were obtained via the tail vein or via the femoral vein every 6th day and blast cells counted and graphically represented.
(§5) Abdominal swelling and decrease in activity was monitored daily, blood smear taken via the tail vein or the femoral vein every 6th day and H&E stained as per standard protocols. 42 days after implantation, mice were sacrificed and spleens harvested.
(§6) Nude mice were intraperitoneally implanted with Baf3 mutant cells (wt, T315I, M351T or E255K). […] Blood was drawn from the femoral vein or tail vein every 6th day and blast cell count determined and graphically represented.

in vivo = conditions: mouse, po
[5] = system: AKT, ERK and Pi3k in 5310 glioma cells; assay: Western blot analysis, 5310; format: cell-based
Protocol: as §3

4910 glioma cells [6] = assay: In vitro angiogenic assay, 4910 conditioned media on human dermal endothelial cells; format: cell-based; conditions: 4910 cells
Protocol: as §2

[7] = system: AKT, ERK and Pi3k in ZR71 breast cancer cells; assay: Western blot analysis, ZR71; format: cell-based
Protocol: as §3

[8] = system: Baf3 murine leukemia cells (T315I); assay: Blast cell count in nude mice implanted with Baf3 T315I cells; format: in vivo; conditions: Baf3T315I; Imatinib 10 mg/kg, AN019 20 mg/kg, AN024 20 mg/kg, oral gavage or ip; day 42
Excerpt: as §4, §5, §6

[9] = system: K562 luc human leukemia cells; assay: Luciferase expression in nude mice implanted with K562 luc cells, low dose oral administration; format: in vivo
Protocol: Five mice were used per group and divided into 24 groups+2 control. All groups were implanted with K562 normal/luc cells. Of the 24 groups, 12 were used for luciferase studies whereas the other 12 were used for blood smear count studies.
Drugs were administered by oral gavage (2% gum acacia and 2% SLS in an aqueous suspension).

[10] = system: Baf3 murine leukemia cells (Wt); assay: Blast cell count in nude mice implanted with Baf3 Wt cells; format: in vivo; conditions: Baf3Wt; Imatinib 10 mg/kg, AN019 20 mg/kg, AN024 20 mg/kg, oral gavage or ip; day 42
Excerpt: as §4, §5, §6

[11] = system: K562 luciferase expressing cells; assay: Leukemic survival study in nude mice implanted with K562 luciferase expressing cells; format: in vivo
Excerpt: K562 luciferase expressing cells were implanted intraperitoneally into nude mice; the mice were scanned using the xenogeny IVIS image station after ip injections of luciferin does determine implantations. Drug treatment was started as in previous studies day 15 after implantation. The animals were given treatment till day 42, after which drug treatment was stopped and survival of the animals determined as per the animal care regulations. […] Drug treatment was withdrawn on day 42 post implantation and survival of animals determined.

4910 glioma cells [12] = assay: Matrigel invasion assay (modified Boyden chamber), 4910; format: cell-based, human
Protocol: as §1

ZR71 breast cancer cells = assay: In vitro angiogenic assay, ZR-71 conditioned media on human dermal endothelial cells; format: cell-based; conditions: ZR-71 cells; radiation not distinguished
Protocol: as §2

5310 glioma cells [13] = assay: In vitro angiogenic assay, 5310 conditioned media on human dermal endothelial cells; format: cell-based; conditions: 5310 cells
Protocol: as §2

[14] = system: 4910 human glioma xenograft cells; assay: Glioma radiation study, nude mice intracranially implanted with 4910 cells; format: in vivo
Protocol: Nude mice were intracranially implanted with 4910 human glioma xenograft cells (1×10^6 cells). Ten days after implantation mice were treated with AN019, AN024 or temozolomide with or without radiation (5 Gy/week). The experiment was terminated at day 40 post implantation.

Cc1ccc(NC(=O)c2cc(C(F)(F)F)cc(C(F)(F)F)c2)cc1Nc1nccc(-c2cccnc2)n1 [AN019, (3,5-bis trifluoromethyl)-N-[4-methyl-3-(4-pyridin-3yl-pyrimidin-2ylamino)-phenyl]-benzamide]
Therapeutic index - LD50/ED50 (K562; Leukemic mice (K562)): 98.5 | ED50 (K562; Mus musculus, K562, po, read-out: ED50 (po) Mice): 11.5 mg/kg | Physiological, phenotypic or behavioral abnormality (K562 cells): no abnormal physiological, phenotypic or behavioral abnormality | ±Change in invasion after radiation (5310 glioma cells [1]): +1% | Inhibition of angiogenesis ([2]; after radiation): slight inhibition | Inhibition of angiogenesis ([2]; control condition (without radiation)): slight inhibition | pERK levels (Western blot) [3]: reduced significantly | Blast cell count in blood smears [4]: significant decrease in blast cell count | LD50 (in vivo): 1130 mg/kg | AKT expression levels (Western blot) [5]; 5310: decrease in AKT expression levels | PI3k levels (Western blot) ([5]; 5310, after radiation): reappeared after radiation treatment | PI3k levels (Western blot) ([5]; 5310, without radiation): almost undetectable | Inhibition of angiogenesis (4910 glioma cells [6]; after radiation): increase in angiogenic inhibition | Inhibition of angiogenesis (4910 glioma cells [6]; without radiation): inhibition of angiogenesis similar to MDA-MB-231 cells | AKT levels (Western blot) ([7]; ZR71, after radiation): enhanced after radiation | AKT levels (Western blot) ([7]; ZR71, unirradiated): decrease in AKT levels | PI3k levels (Western blot) ([7]; ZR71, with radiation): absent | PI3k levels (Western blot) ([7]; ZR71, without radiation): absent | Blast cell count in blood smears [8]: significant decrease in blast cell count | Luciferase expression ([9]; 1 mg/kg): did not induce a decrease in luciferase expression | Luciferase expression ([9]; 5 mg/kg): fixation of leukemia cells at constant expression levels | Luciferase expression ([9]; 10 mg/kg): decrease in luciferase expression | Luciferase expression ([9]; 20 mg/kg): decrease in luciferase expression | Blast cell count in blood smears [10]: complete regression of leukemic blast cells | Blast cell count from blood smears, effectiveness after withdrawal of drug treatment ([11]; drug treatment withdrawn on day 42): showed effectiveness after withdrawal of drug treatment | Mortality ([11]; treatment day 15 to day 42, then withdrawn, 10 animals): did not show any mortality | ±Change in invasion after radiation (4910 glioma cells [12]; 4910): −27% | +Radiation % Invasion (4910 glioma cells [12]; 4910, with radiation, 48 h treatment): 15% | Inhibition of angiogenesis (ZR71 breast cancer cells): complete inhibition of angiogenesis | Inhibition of angiogenesis (5310 glioma cells [13]; after radiation): inhibition of angiogenesis was greater in control conditions than after radiation treatment | Inhibition of angiogenesis (5310 glioma cells [13]; control conditions (without radiation)): inhibition of angiogenesis was greater in control conditions than after radiation treatment | Intracranial tumour size and appearance ([14]; with radiation (5 Gy/week)): tumor size was significantly reduced | Intracranial tumour size and appearance ([14]; without radiation): tumours similar to AN024 treated animals
